Experimental data from US12454520B2, “Protein degraders and uses thereof” (Kymera Therapeutics, Inc., priority 2018, dated 2025).

Molecular target: T1, SMARCA2 (Homo sapiens, UniProt P51531)
T1 construct: endogenous in cells; host or cells: NCI-H1299
Experiment: MSD SMARCA2 degradation in NCI-H1299 cell line
Type: cell-based
Settings: NCI-H1299 cells, percentage of SMARCA2 degradation after 24 hours
Procedure: Example 14. MSD SMARCA2 Degration in NCI-H1299 Cell Line
Cell Culture: Cells were cultured in exponential growth phase.
Compound Preparation and Treatment: NCI-H1299 cells were seeded into the 96-well plate at 4.0*10^4 cells per 100ul per well. Incubate the plate in the incubator overnight. The next day, compounds were diluted to designed stock concentration by TECAN, then perform a 3 fold, 9-point dilution via transferring 15 uL compound into 30 μL DMSO using Apricot. 200 nL diluted compound from compound source plate were transferred into the 96-intermediate plate as designated by using Echo550, followed with 100 ul culture medium to make the 2× compound solution. Cell plate were changed with 80 ul of fresh culture medium and 80 ul of 2× compound solution was added into the well to achieve the final designed concentration. Cell plate was then shaken at 720 rpm for 5 min and incubated for 24 hours in the incubator.
Sample Preparation: Media was aspirated from the cultures and the plate was washed with PBS twice. 60 ul of pre-chilled PIPA lysis buffer (Boston BioProducts BP-115D) with protease inhibitor were directly added into the well to lyze the cells for 20 minutes at 4° C. Cell lysates were collected.
MSD Procedure: The MSD plate was coated with 40 ul cell lysate and incubated at 4° C. overnight. The next day, the MSD coated bare plate was washed 3 times with 150 ul 1×TBST per well, blocked with 150 ul of blocking buffer per well, and shaken for 1 hour at RT, 600 rpm. Blocking buffer was 3% Blocker A in TBST. MSD plate was then washed 3 times with 150 ul 1×TBST per well and Primary Detection antibody (Rabbit anti-SMARCA2/BRM antibody, 100 μg/ml, ab223735) was added to a final [conc.]: 0.3 ug/ml, 25ul/well and shaken for 1 hour at RT, 600 rpm. Antibody was prepared in Antibody Detection buffer (1% Blocker A in 1×TBST). The MSD plate was then washed 3 times with 150 ul 1×TBST per well. Secondary Detection antibody (SULFO-TAG anti-species antibody) was then added to a final [conc.]: 1 μg/ml, 25 ul/well, and shaken for 1 hour at RT, 600 rpm. Antibodies were prepared in Antibody Detection buffer (1% Blocker A in 1×TBST). MSD plate was washed 3 times with 150 ul 1×TBST per well and 2×MSD reading buffer was added, 150 ul per well, and diluted from 4× with water. MSD instrument was then read.
Data Analysis: The percentage of relative level of SMARCA2 level was calculated following equation below.
LC: A2780, SMARCA2 negative cells. HC: NCI-H1299 cells treated with DMSO.
The letter codes for the percentage of SMARCA2 degradation after 24 hours (Dmax %) include: A (>90% degradation), B (>70-90% degradation), C (50-70% degradation), and D (<50% degradation).

T1 sequence (P51531 whole entry): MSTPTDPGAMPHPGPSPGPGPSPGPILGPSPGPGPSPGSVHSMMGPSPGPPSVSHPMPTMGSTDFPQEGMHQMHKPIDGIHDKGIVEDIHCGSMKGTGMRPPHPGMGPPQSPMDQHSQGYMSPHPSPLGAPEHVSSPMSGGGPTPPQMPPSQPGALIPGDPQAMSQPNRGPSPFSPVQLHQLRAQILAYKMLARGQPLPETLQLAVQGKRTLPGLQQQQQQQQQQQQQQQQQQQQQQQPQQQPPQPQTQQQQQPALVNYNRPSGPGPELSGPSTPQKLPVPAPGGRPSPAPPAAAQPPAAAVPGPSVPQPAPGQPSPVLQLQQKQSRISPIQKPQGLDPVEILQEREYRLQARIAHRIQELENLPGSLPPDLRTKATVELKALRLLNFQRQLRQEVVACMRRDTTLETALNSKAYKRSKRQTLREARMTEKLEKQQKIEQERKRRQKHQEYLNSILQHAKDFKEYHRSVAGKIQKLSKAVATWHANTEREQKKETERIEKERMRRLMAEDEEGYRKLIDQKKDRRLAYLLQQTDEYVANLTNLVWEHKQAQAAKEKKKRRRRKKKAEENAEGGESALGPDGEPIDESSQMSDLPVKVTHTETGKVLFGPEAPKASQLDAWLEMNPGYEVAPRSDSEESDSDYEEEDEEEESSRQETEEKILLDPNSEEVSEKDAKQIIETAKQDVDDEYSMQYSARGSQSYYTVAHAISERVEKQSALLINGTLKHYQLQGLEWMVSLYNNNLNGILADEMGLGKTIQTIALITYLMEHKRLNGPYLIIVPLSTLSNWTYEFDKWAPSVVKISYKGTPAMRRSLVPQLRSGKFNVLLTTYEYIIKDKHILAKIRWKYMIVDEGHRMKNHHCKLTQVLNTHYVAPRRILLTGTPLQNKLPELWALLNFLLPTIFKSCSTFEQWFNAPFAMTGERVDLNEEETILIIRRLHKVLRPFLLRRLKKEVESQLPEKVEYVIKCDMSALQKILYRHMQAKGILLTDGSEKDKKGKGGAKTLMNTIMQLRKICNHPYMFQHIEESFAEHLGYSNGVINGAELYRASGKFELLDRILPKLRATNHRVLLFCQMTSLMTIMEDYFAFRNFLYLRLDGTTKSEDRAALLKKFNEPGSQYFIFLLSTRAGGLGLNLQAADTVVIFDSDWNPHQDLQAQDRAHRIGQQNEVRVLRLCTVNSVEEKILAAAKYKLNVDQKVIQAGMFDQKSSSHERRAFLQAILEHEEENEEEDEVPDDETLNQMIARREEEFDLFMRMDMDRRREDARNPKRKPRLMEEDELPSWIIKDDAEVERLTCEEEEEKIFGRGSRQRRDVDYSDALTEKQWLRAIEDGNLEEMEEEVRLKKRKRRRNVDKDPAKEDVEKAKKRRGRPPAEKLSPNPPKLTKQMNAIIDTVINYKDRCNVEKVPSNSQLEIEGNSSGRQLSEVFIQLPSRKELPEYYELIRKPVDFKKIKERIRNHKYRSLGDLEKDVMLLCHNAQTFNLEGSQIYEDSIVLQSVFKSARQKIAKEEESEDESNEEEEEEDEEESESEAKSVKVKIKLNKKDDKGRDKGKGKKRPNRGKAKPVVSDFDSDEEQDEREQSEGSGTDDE

Row | SMILES | Dmax [%]
1 | Nc1nnc(-c2ccccc2O)cc1-c1ccc(CN2CCN(CCCCCCCc3ccc4c(c3)c3cccnc3n4C3CCC(=O)NC3=O)CC2)cc1 (stereo not shown) [I-75] | 70 to 90
2 | Nc1nnc(-c2ccccc2O)cc1-c1ccc(CN2CCN(CCCCCCc3cccc4c3c3cccnc3n4C3CCC(=O)NC3=O)CC2)cc1 (stereo not shown) [I-79] | 50 to 70
3 | Nc1nnc(-c2ccccc2O)cc1N1CCN(CCCc2cccc3c2c2cccnc2n3C2CCC(=O)NC2=O)CC1 (stereo not shown) [I-91] | < 50
4 | Nc1nnc(-c2ccccc2O)cc1-c1ccc(CN2CCN(CCCCCCCc3ccnc4c3c3ccccc3n4C3CCC(=O)NC3=O)CC2)cc1 (stereo not shown) [I-83] | 70 to 90
5 | Nc1nnc(-c2ccccc2O)cc1-c1ccc(CN2CCN(CCCCCCCCc3ccc4c(c3)c3cccnc3n4C3CCC(=O)NC3=O)CC2)cc1 (stereo not shown) [I-76] | > 90
6 | Nc1nnc(-c2ccccc2O)cc1-c1ccc(CN2CCN(CCCCCCCCCc3ccc4c(c3)c3cccnc3n4C3CCC(=O)NC3=O)CC2)cc1 (stereo not shown) [I-77] | > 90
7 | Nc1nnc(-c2ccccc2O)cc1-c1ccc(CN2CCN(CCCCCc3ccnc4c3c3ccccc3n4C3CCC(=O)NC3=O)CC2)cc1 (stereo not shown) [I-81] | 70 to 90
8 | Nc1nnc(-c2ccccc2O)cc1-c1ccc(CN2CCN(CCCCOCCCc3ccc4c(c3)c3cccnc3n4C3CCC(=O)NC3=O)CC2)cc1 (stereo not shown) [I-84] | 50 to 70
9 | Nc1nnc(-c2ccccc2O)cc1-c1cnn(CC2CCN(Cc3cccc4c3c3cccnc3n4C3CCC(=O)NC3=O)CC2)c1 (stereo not shown) [I-96] | 50 to 70
10 | CN(CCCCCc1cccc2c1c1cccnc1n2C1CCC(=O)NC1=O)Cc1ccc(N2CCN(c3cc(-c4ccccc4O)nnc3N)CC2)cc1 (stereo not shown) [I-95] | < 50
11 | Nc1nnc(-c2ccccc2O)cc1-c1ccc(CNCCOCCOCCCc2cnc3c(c2)c2ccccc2n3C2CCC(=O)NC2=O)cc1 (stereo not shown) [I-88] | 70 to 90
12 | Nc1nnc(-c2ccccc2O)cc1-c1ccc(CN2CCN(CCCCCCc3ccnc4c3c3ccccc3n4C3CCC(=O)NC3=O)CC2)cc1 (stereo not shown) [I-82] | 70 to 90
13 | Nc1nnc(-c2ccccc2O)cc1-c1ccc(CN2CCN(CCCCCCCc3cccc4c3c3cccnc3n4C3CCC(=O)NC3=O)CC2)cc1 (stereo not shown) [I-80] | > 90
14 | Nc1nnc(-c2ccccc2O)cc1N1CCN(CCCCCc2cccc3c2c2cccnc2n3C2CCC(=O)NC2=O)CC1 (stereo not shown) [I-92] | < 50
15 | CN(Cc1ccc(N2CCN(c3cc(-c4ccccc4O)nnc3N)CC2)cc1)Cc1cccc2c1c1cccnc1n2C1CCC(=O)NC1=O (stereo not shown) [I-93] | < 50
16 | Nc1nnc(-c2ccccc2O)cc1N1CCN(Cc2cccc3c2c2cccnc2n3C2CCC(=O)NC2=O)CC1 (stereo not shown) [I-90] | < 50
17 | CN(Cc1ccc(N2CCN(c3cc(-c4ccccc4O)nnc3N)CC2)cc1)CC1CCN(Cc2ccc3c(c2)c2cccnc2n3C2CCC(=O)NC2=O)CC1 (stereo not shown) [I-85] | > 90
18 | Nc1nnc(-c2ccccc2O)cc1-c1ccc(CN2CCN(CCCCCc3cccc4c3c3cccnc3n4C3CCC(=O)NC3=O)CC2)cc1 (stereo not shown) [I-78] | 50 to 70
19 | Nc1nnc(-c2ccccc2O)cc1N1CC2CCC(C1)N2c1ncc(C2CCN(CCCc3ccnc4c3c3ccccc3n4C3CCC(=O)NC3=O)CC2)cn1 (stereo not shown) [I-145, 3-(4-(3-(4-(2-(3-(3-amino-6-(2-hydroxyphenyl)pyridazin-4-yl)-3,8-diazabicyclo[3.2.1]octan-8-yl)pyrimidin-5-yl)piperidin-1-yl)propyl)-9H-pyrido[2,3-b]indol-9-yl)piperidine-2,6-dione] | > 90
20 | CN(CCCc1cccc2c1c1cccnc1n2C1CCC(=O)NC1=O)Cc1ccc(N2CCN(c3cc(-c4ccccc4O)nnc3N)CC2)cc1 (stereo not shown) [I-94] | 50 to 70
21 | Nc1nnc(-c2ccccc2O)cc1-c1cnn(CC2CCN(CCCc3cccc4c3c3cccnc3n4C3CCC(=O)NC3=O)CC2)c1 (stereo not shown) [I-97] | > 90
22 | Nc1nnc(-c2ccccc2O)cc1-c1ccc(CN2CCN(CCCc3ccc4c(c3)c3cccnc3n4C3CCC(=O)NC3=O)CC2)cc1 (stereo not shown) [I-86] | < 50
23 | Nc1nnc(-c2ccccc2O)cc1-c1cnn(CC2CCN(CCCCOCCCc3cccc4c3c3cccnc3n4C3CCC(=O)NC3=O)CC2)c1 (stereo not shown) [I-89] | < 50
24 | Nc1nnc(-c2ccccc2O)cc1N1CC2CCC(C1)N2c1ncc(C2CCN(CCCc3ccc4c(c3)c3cccnc3n4C3CCC(=O)NC3=O)CC2)cn1 (stereo not shown) [I-138, 3-[6-[3-[4-[2-[3-[3-amino-6-(2-hydroxyphenyl)pyridazin-4-yl]-3,8-diazabicyclo[3.2.1]octan-8-yl]pyrimidin-5-yl]-1-piperidyl]propyl]pyrido[2,3-b]indol-9-yl]piperidine-2,6-dione] | > 90
25 | CN(Cc1ccc(N2CCN(c3cc(-c4ccccc4O)nnc3N)CC2)cc1)CC1CCN(Cc2cccc3c2c2cccnc2n3C2CCC(=O)NC2=O)CC1 (stereo not shown) [I-87] | < 50

Further lines, results first:

Row | Dmax [%] | SMILES
26 | < 50 | Nc1nnc(-c2ccccc2O)cc1-c1cnn(CC2COC(CCCCc3ccc4c(c3)c3cccnc3n4C3CCC(=O)NC3=O)OC2)c1 (stereo not shown) [I-140, 3-(6-(4-(5-((4-(3-amino-6-(2-hydroxyphenyl)pyridazin-4-yl)-1H-pyrazol-1-yl)methyl)-1,3-dioxan-2-yl)butyl)-9H-pyrido[2,3-b]indol-9-yl)piperidine-2,6-dione]
27 | < 50 | Nc1nnc(-c2ccccc2O)cc1N1CCN(CCCCCc2ccnc3c2c2ccccc2n3C2CCC(=O)NC2=O)CC1 (stereo not shown) [I-100]
28 | > 90 | Nc1nnc(-c2ccccc2O)cc1-c1cnn(C2CCN(C3CCC(c4ccc5c(c4)c4cccnc4n5C4CCC(=O)NC4=O)CC3)CC2)c1 (stereo not shown) [I-144]
29 | > 90 | Nc1nnc(-c2ccccc2O)cc1-c1cnn(C2CCCN(CCCc3ccnc4c3c3ccccc3n4C3CCC(=O)NC3=O)C2)c1 (stereo not shown) [I-143]
30 | > 90 | Nc1nnc(-c2ccccc2O)cc1-c1cnn(CC2CCN(CCCCCc3ccnc4c3c3ccccc3n4C3CCC(=O)NC3=O)CC2)c1 (stereo not shown) [I-104]
31 | > 90 | Nc1nnc(-c2ccccc2O)cc1-c1cnn(CC2CCN(CCCc3ccnc4c3c3ccccc3n4C3CCC(=O)NC3=O)CC2)c1 (stereo not shown) [I-103]
32 | > 90 | Nc1nnc(-c2ccccc2O)cc1-c1cnn(C2CCN(CCCCCc3ccnc4c3c3ccccc3n4C3CCC(=O)NC3=O)CC2)c1 (stereo not shown) [I-137]
33 | 70 to 90 | Nc1nnc(-c2ccccc2O)cc1-c1cnn([C@H]2CCCN(CCCc3ccc4c(c3)c3cccnc3n4C3CCC(=O)NC3=O)C2)c1 (stereo partly drawn) [I-141, 3-[6-[3-[(3S)-3-[4-[3-amino-6-(2-hydroxyphenyl)pyridazin-4-yl]pyrazol-1-yl]-1-piperidyl]propyl]pyrido[2,3-b]indol-9-yl]piperidine-2,6-dione]
34 | < 50 | Nc1nnc(-c2ccccc2O)cc1-c1ccc(CN2CCN(Cc3ccc4c(c3)c3cccnc3n4C3CCC(=O)NC3=O)CC2)cc1 (stereo not shown) [I-105]
35 | 70 to 90 | Nc1nnc(-c2ccccc2O)cc1-c1cnn(C2CCN(Cc3cn(Cc4ccc5c(c4)c4cccnc4n5C4CCC(=O)NC4=O)nn3)CC2)c1 (stereo not shown) [I-146, 3-(6-((4-((4-(4-(3-amino-6-(2-hydroxyphenyl)pyridazin-4-yl)-1H-pyrazol-1-yl)piperidin-1-yl)methyl)-1H-1,2,3-triazol-1-yl)methyl)-9H-pyrido[2,3-b]indol-9-yl)piperidine-2,6-dione]
36 | 50 to 70 | CN(CCCCCc1ccnc2c1c1ccccc1n2C1CCC(=O)NC1=O)Cc1ccc(N2CCN(c3cc(-c4ccccc4O)nnc3N)CC2)cc1 (stereo not shown) [I-102]
37 | < 50 | Nc1nnc(-c2ccccc2O)cc1-c1cnn(C2CCCN(CCCc3ccc4c(c3)c3cccnc3n4C3CCC(=O)NC3=O)C2)c1 (stereo not shown) [I-142]
38 | < 50 | Nc1nnc(-c2ccccc2O)cc1N1CCN(CCCc2ccnc3c2c2ccccc2n3C2CCC(=O)NC2=O)CC1 (stereo not shown) [I-99]
39 | > 90 | Nc1nnc(-c2ccccc2O)cc1-c1cnn(C2CCN(CCCCc3ccc4c(c3)c3cccnc3n4C3CCC(=O)NC3=O)CC2)c1 (stereo not shown) [I-133]
40 | > 90 | Nc1nnc(-c2ccccc2O)cc1-c1cnn(CC2CCN(CCCCCc3cccc4c3c3cccnc3n4C3CCC(=O)NC3=O)CC2)c1 (stereo not shown) [I-98]
41 | < 50 | CN(CCCc1ccnc2c1c1ccccc1n2C1CCC(=O)NC1=O)Cc1ccc(N2CCN(c3cc(-c4ccccc4O)nnc3N)CC2)cc1 (stereo not shown) [I-101]
42 | 50 to 70 | Nc1nnc(-c2ccccc2O)cc1-c1cnn(C2CCN(CCCCCc3ccc4c(c3)c3cccnc3n4C3CCC(=O)NC3=O)CC2)c1 (stereo not shown) [I-135]
43 | 70 to 90 | Nc1nnc(-c2ccccc2O)cc1-c1cnn(CC2CCN(CCCCc3ccc4c(c3)c3cccnc3n4C3CCC(=O)NC3=O)CC2)c1 (stereo not shown) [I-134]
